# Reference: patent EP0623592B1, “Peptide analogs as irreversible interleukin-1beta protease inhibitors” (VERTEX PHARMACEUTICALS INCORPORATED, priority 1993, dated 1994)
# Molecular target: T1, IL-1β protease (Homo sapiens, UniProt P29466)
# T1 construct: Partially purified IL-1β protease is stored at -80°C
# T1 sequence (P29466 120-297 limits assumed): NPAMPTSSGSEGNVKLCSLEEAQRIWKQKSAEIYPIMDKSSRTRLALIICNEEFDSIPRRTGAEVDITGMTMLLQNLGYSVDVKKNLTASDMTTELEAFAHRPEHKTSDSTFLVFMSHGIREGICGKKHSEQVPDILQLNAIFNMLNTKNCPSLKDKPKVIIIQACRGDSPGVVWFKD
# T1 sequence (P29466 317-404 limits assumed): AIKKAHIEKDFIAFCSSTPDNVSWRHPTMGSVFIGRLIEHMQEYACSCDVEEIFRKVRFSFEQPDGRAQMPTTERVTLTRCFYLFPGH
# Assay: IL-1β protease inhibition assay (HPLC readout of TRITC-AYVHDAPVRS-NH2 substrate cleavage)
# Assay type: biochemical
# Conditions: partially purified IL-1β protease; 15 minutes preincubation with inhibitor at 37°C; substrate 67 µM; 60 minutes at 37°C
# Protocol: Compounds of the present invention were tested for IL-1β protease inhibition activity according to the following protocol: Partially purified IL-1β protease is stored at -80°C, thawed on ice, and preincubated for 10 minutes at 37°C with 2.5 mM dithiothreitol in a buffer solution containing 10 mM Tris-HCI (pH 8.0) and 25% (v/w) glycerol. Inhibitors are prepared as stock solutions in dimethyl sulfoxide (DMSO). The protease is preincubated with inhibitor in a volume of 20 µl in a 1.5 ml polypropylene microcentrifuge tube for 15 minutes at 37°C. The volume of compound added to the assay is adjusted to yield a DMSO concentration in the preincubation of <15% (v/v). The enzyme assay is then initiated by the addition of substrate (TRITC-AYVHDAPVRS-NH2) to yield a final concentration of 67 µM in a final volume of 30 µl. The reactions are carried out for 60 minutes at 37°C in the dark and are terminated by the addition of 10 µl of 10% trifluoroacetic acid (TFA). Following the addition of 115 µl of 0.1% TFA, the samples are analyzed by high pressure liquid chromatography using a reverse phase (C18) column and elution with an acetonitrile/water/TFA gradient. Substrate and product are monitored by their absorbance at 550 nm and elute at 4.2 and 5.2 minutes, respectively.
row,IC50 [nM],Compound
1,50,"O=C(O)C[C@H](NC(=O)OCc1ccccc1)C(=O)COC(=O)c1c(Cl)cccc1Cl [Example 38, N-Benzyloxycarbonyl-L-Aspartic Acid 2,6-Dichlorobenzoyloxymethyl Ketone]"
2,60,"COC(=O)N[C@@H](C)C(=O)N[C@@H](CC(=O)O)C(=O)COC(=O)c1c(Cl)cccc1Cl [Example 54, N-Methoxycarbonyl-L-alanine-L-aspartic acid 2,6-dichlorobenzoyloxymethyl ketone]"
3,100,"O=C(O)C[C@H](NC(=O)OCc1ccccc1)C(=O)COC(=O)c1c(C(F)(F)F)cccc1C(F)(F)F [Example 40, N-Benzyloxycarbonyl-L-aspartic acid 2,6-ditrifluoromethyl benzoyloxymethyl ketone]"
4,100,"O=C(O)C[C@H](NC(=O)OCc1ccccc1)C(=O)COc1c(Cl)cccc1Cl [Example 41, N-Benzyloxycarbonyl-L-aspartic acid 2,6-dichlorophenoxymethylketone]"
5,80,"COC(=O)N[C@@H](CC(=O)O)C(=O)COC(=O)c1c(Cl)cccc1Cl [Example 67, N-Methoxycarbonyl-L-aspartic acid 2,6-dichlorobenzoyloxymethyl ketone]"
6,70,"COC(=O)N[C@@H](Cc1ccccc1)C(=O)N[C@@H](CC(=O)O)C(=O)COC(=O)c1c(Cl)cccc1Cl [Example 57, N-Methoxycarbonyl-L-phenylalanine-L-aspartic acid 2,6-dichlorobenzoyloxymethyl ketone]"
